Among the data in PubChem BioAssay (NCI) are TGI and GI50 values, retold here.

Common to all, as to test: growth of human tumour cells (NCI), 48 h
Test [1] deals with EKVX NSCLC.
Test [2] concerns HL-60(TB) leukemia.
Test [3] has as its system K-562 leukemia.
The subject of test [4] is NCI-H226 lung.
Test [5] has as its system OVCAR-4 ovarian.
Test [6] concerns RXF 393 renal.
Test [7] concerns SF-268 CNS.
Test [8] deals with SF-539 CNS.
The test system of test [9] is SNB-75 CNS.
Test [10] relates to TK-10 renal.

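Five compound concentrations were applied to cells in 96-well plates for 48 hours; endpoints were derived by simple linear interpolation of the resulting dose-response curve. GI50 marks 50% less growth. TGI: concentration producing complete growth inhibition.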

As to `O=C(O)c1cc(C(=O)O)cc(N2C(=O)c3ccccc3C2=O)c1`, the TGI in [1], in [2], in [3], in [4], in test [5] and in [6] was above 100 µM in each case. The TGI in test [7], in test [8], in test [9] and in test [10] was above 100 µM in each case.

`CCOc1ccccc1-n1c(CN2CCN(C(=O)COc3ccc(CNCCCCCCN4C5CCCC4CC(OC(=O)Nc4cc(C)ccc4OC)C5)cc3)CC2)nc2ccccc2c1=O` (stereo unspecified): the GI50 is 1.67 µM in [1]; 0.64 µM in [2]; 0.651 µM in test [3]; 1.88 µM in [4]; 1.75 µM in test [5]; 1.38 µM in test [6]. In addition, the GI50 in [7] was 1.44 µM; in [8] it was 1.69 µM; in test [9], 1.4 µM; in test [10] it was 1.72 µM. The TGI was 3.33 µM in test [1]; 1.35 µM in [2]; 1.36 µM in test [3]; 3.91 µM in test [4]; 3.34 µM in test [5]; 2.88 µM in [6]. Further, the TGI in [7] was determined as 2.99 µM; in [8], 3.14 µM; in [9] it was 2.72 µM; in [10], 3.14 µM.

As for `Cc1cc(=O)n2[nH]c(-c3ccc(C(C)(C)C)cc3)cc2n1`, the GI50 in test [1] is 3.88 µM; in [2] it was 6.9 µM; in [3], 6.72 µM; in test [4], 5.28 µM; in test [5], 12.7 µM; in test [6], 4.59 µM. For the same compound, the GI50 was 7.85 µM in [7], 9.01 µM in [8], 7.9 µM in [9] and 3.5 µM in test [10]. Moreover, the TGI in test [1] is 59.1 µM; in test [2], 93.8 µM; in test [3] it was above 100 µM; in test [4], above 100 µM; in test [5], above 100 µM; in test [6] it was 28.2 µM. Besides, the TGI in [7] is 72.8 µM; in test [8], above 100 µM; in test [9], 46.8 µM; in test [10], 61.8 µM.

In the case of `O=[N+]([O-])c1cnc(Sc2ccncn2)s1`, the GI50 in test [1] was 6.46 µM; in test [2] it was 1.69 µM; in [3] it was 1.31 µM; in test [4] it was 8.37 µM; in test [5] it was 1.76 µM; in test [6], 0.312 µM. In addition, the GI50 in test [7] was 2.65 µM; in test [8] it was 5.61 µM; in test [9], 3.84 µM; in [10], 2.14 µM. Also, the TGI in test [1] amounted to 22.1 µM; in test [2] it was 4.18 µM; in [3], 3.8 µM; in [4], 34 µM; in test [5], 3.27 µM; in [6], 1.68 µM. Moreover, the TGI in [7] came to 7.29 µM; in test [8] it was 14.9 µM; in test [9], 18.8 µM; in test [10] it was 4.22 µM.

For `CSc1ccc(/C=C2\CN(C)C/C(=C\c3ccc(SC)cc3)C2=O)cc1`, the TGI in test [1], in test [2], in [3], in test [4], in test [5] and in test [6] was above 100 µM in each case. Further, the TGI in test [7] was above 100 µM; in test [8], 78.9 µM; in test [9], 38.2 µM; in [10], above 100 µM.

Turning to `COc1ccc(-c2cc(-c3ccc(Nc4nc(Nc5ccccc5)nc(Nc5ccc(Cl)cc5)n4)cc3)nc(N)c2C#N)cc1`, the GI50 was 1.44 µM in test [1]; 1.15 µM in [2]; 1.52 µM in test [3]; 1.08 µM in [4]; 1.06 µM in [5]; 0.654 µM in [6]. Also, the GI50 is 1.04 µM in test [7], 0.857 µM in [8], 0.737 µM in [9] and 0.974 µM in test [10]. The TGI in test [1] is above 22.9 µM; in test [2], 6.41 µM; in test [3] it was above 18.6 µM; in test [4], 2.73 µM; in test [5], 3.2 µM; in test [6] it was 1.89 µM. The TGI in [7] is 2.49 µM; in test [8] it was 1.77 µM; in test [9], 2.71 µM; in test [10] it was 1.79 µM.

Turning to `Cn1ccnc1C(=O)/C=C/c1ccc(CC(=O)Nc2ccc(Br)cc2)cc1`, the GI50 in test [1] is 2.76 µM; in test [2], 4.58 µM; in test [3], 3.88 µM; in test [4], 4.15 µM; in [5], 4.52 µM; in [6] it was 3.12 µM. Also, the GI50 in test [7] is 3.34 µM; in test [8], 2.43 µM; in test [9], 3.05 µM; in test [10], 6.21 µM. The TGI in [1] is 11.7 µM; in [2] it was above 16.7 µM; in [3] it was above 16.7 µM; in test [4] it was above 16.7 µM; in test [5] it was above 16.7 µM; in test [6], 6.03 µM. The TGI in test [7] is 13 µM; in [8] it was 4.81 µM; in test [9] it was above 16.7 µM; in test [10] it was above 16.7 µM.

As to `CC(=O)NC1=C(NCC(C)(C)C)C(=O)c2ccccc2C1=O`, the TGI in test [1], in [2], in [3], in test [4], in [5] and in test [6] was above 100 µM in each case. For the same compound, the TGI in test [7], in test [8], in test [9] and in [10] was above 100 µM throughout.

As for `COc1cc(/C=C/c2cc(/C=C/c3ccc(O)c(OC)c3)n(C(=O)Nc3ccc(F)cc3)n2)ccc1O`, the GI50 is 3.05 µM in [1]; 0.364 µM in [2]; 0.371 µM in test [3]; 2.62 µM in [4]; 1.36 µM in test [5]; 0.268 µM in test [6]. The GI50 in test [7] was 0.602 µM; in [8], 0.46 µM; in test [9], 0.551 µM; in test [10], 3.43 µM. Also, the TGI in test [1] was 43.7 µM; in test [2] it was 1.93 µM; in [3], 2.91 µM; in [4], 9.79 µM; in [5], 7.57 µM; in [6], 0.994 µM. Moreover, the TGI was 10 µM in test [7], 5.31 µM in test [8], 9.48 µM in test [9] and 19.2 µM in test [10].

For the compound `COc1ccc(C2=CSc3cc(Cl)c(C)cc3S(=O)(=O)N2C(C)=O)cc1`, the GI50 in [1] was 38.2 µM; in test [2], 17.2 µM; in test [3], 27.8 µM; in test [4] it was 15.2 µM; in test [6], 35.6 µM; in test [7], 29.1 µM. Besides, the GI50 in test [8] was 33 µM; in [10], 17.8 µM. In addition, the TGI is above 100 µM in [1]; 43.7 µM in test [2]; above 100 µM in test [3]; 60 µM in test [4]; above 100 µM in [6]; above 100 µM in [7]. In addition, the TGI in test [8] turned out to be 78.6 µM; in test [10] it was 46.7 µM.

Regarding `O=C1NC2(CCCCC2)C2CCCCC(O)C12` (stereo unspecified), the TGI in [1], in test [2], in test [3], in test [4], in [6] and in test [7] was above 100 µM throughout. In addition, the TGI in [8], in test [9] and in [10] was above 100 µM each time.

With `CC1=C(C(=O)Nc2ccc(F)c(Cl)c2)C(c2ccc(Cl)cc2)NC(=O)N1` (stereo unspecified), the GI50 in [1] was 18.5 µM; in test [2] it was 0.083 µM; in [3], 0.0173 µM; in test [4], 15.5 µM; in test [6] it was 17.6 µM; in [7], 22.1 µM. For the same compound, the GI50 in test [8] is 14 µM; in test [9] it was 5.28 µM; in test [10], 7.4 µM. For the same compound, the TGI is 49.9 µM in test [1]; 1.87 µM in test [2]; 21.3 µM in [3]; 38.6 µM in [4]; 37.2 µM in [6]; 73.4 µM in test [7]. For the same compound, the TGI in [8] turned out to be 29.7 µM; in test [9] it was 30.5 µM; in [10], 25.4 µM.

Consider `CC1=C(C(=O)Nc2ccccc2C)C(c2ccco2)C(C(=O)Nc2ccccc2C)=C(C)N1C`, for which the TGI in test [1], in test [2], in test [3], in [4], in test [5] and in test [6] was above 100 µM each time. The TGI in test [7], in test [8] and in [10] was above 100 µM each time.

For the compound `Nc1ccc(C(=O)N/C(=C\c2ccc3c(c2)OCO3)c2nc3[nH]c(=S)[nH]c(=O)c3[nH]2)cc1`, the TGI in test [1], in test [3], in [5], in test [6], in test [7] and in test [8] was above 100 µM each time. Also, in [10], the TGI was above 100 µM.

Take `CC[C@@]12CCCN3CC[C@]4(c5cccc(OC)c5N(C(C)=O)[C@@H]4CC1)[C@H]32`: the TGI in test [1] was above 100 µM; in test [2], 44.6 µM; in [4], above 100 µM; in test [5], above 100 µM; in [6], above 100 µM; in [7] it was above 100 µM. For the same compound, the TGI in [8] and in test [10] was above 100 µM throughout.

Turning to `CC(=O)OC1COC(n2c(=S)n(-c3ccc(C)cc3)c(=O)c3ccccc32)C(OC(C)=O)C1OC(C)=O` (stereo unspecified), the TGI in test [1], in test [4], in test [5], in test [6], in test [7] and in [8] was above 100 µM each time. Besides, the TGI in test [9] is above 100 µM.

As to `Cc1cc2nc(C(Cl)Cl)nc(-c3ccc(Cl)cc3)n2n1`, the GI50 is 1.6 µM in test [1]; 1.11 µM in test [2]; 1.39 µM in test [3]; 3.28 µM in test [4]; 1.06 µM in test [5]; 0.764 µM in test [6]. The GI50 in [7] is 1.34 µM; in [9] it was 1.1 µM; in test [10] it was 1.85 µM. Moreover, the TGI in [1] was 4.3 µM; in [3] it was above 28.5 µM; in test [4], above 100 µM; in [5], 4.38 µM; in test [6], 2.27 µM; in test [7], 4.47 µM. Further, the TGI stood at 4.34 µM in test [9] and 5.21 µM in test [10].

Regarding `COc1ccc2nc3cc(Cl)ccc3c(Sc3ccccc3[N+](=O)[O-])c2c1`, the TGI is above 100 µM in test [1]; above 100 µM in [3]; 67.8 µM in [4]; above 100 µM in [5]; 93.2 µM in test [6]; above 100 µM in test [7]. Also, the TGI in test [8] was above 100 µM; in test [9], 37.3 µM; in test [10] it was above 100 µM.

For the compound `CN(CC(=O)O)S(=O)(=O)c1ccc2ccccc2c1`, the TGI in test [1], in test [2], in [3], in test [5], in test [6] and in test [7] was above 100 µM in each case. For the same compound, the TGI in [8], in [9] and in test [10] was above 100 µM each time.

Take `c1cc2c(cc1NC1=NCCO1)CCC2`: the TGI in [1], in [2], in [3], in test [5], in [6] and in test [7] was above 10 µM in each case. Further, the TGI in test [8], in [9] and in test [10] was above 10 µM each time.

Take `CCOC(=O)C1=C(C)CC2C(=O)OC(=O)C2C1(C)C` (stereo unspecified): the TGI in [1], in [2], in test [3], in test [4], in test [6] and in [7] was above 100 µM throughout. Besides, the TGI in [8] and in test [10] was above 100 µM each time.
